Measurements published in PubChem BioAssay AID2060343 (Molecular Pharmacology Branch, DTP, NCI, 2025).
Where “and” joins values, the source holds several entries; their conditions need not be identical. Equal entries are not always repeated.

Test system: 138582-337-R-J1-PDC spheroids with HUVEC/MSC, viability
Assay: Anticancer human tumor 138582-337-R-J1-PDC patient-derived Merkel cell tumor cell line growth inhibition [IpAb]
Conditions: for viability, T/C: stronger effect = lower value
How it was run: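 Multi-cell spheroids of 60% tumour cells, 25% HUVEC and 15% MSC in ultra-low-attachment U-bottom wells, treated with agents combined with ipatasertib or abemaciclib. Half-log ranges top out near clinical Cmax, or 10 microM when Cmax is unknown.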

[1] = curve of first compound, second compound 0.1 µM
[2] = curve of first compound, second compound 0.316 µM
[3] = curve of first compound, second compound 1 µM
[4] = second compound 0.1 µM, first compound 0.0316 µM
[5] = second compound 0.1 µM, first compound 0.1 µM
[6] = second compound 0.1 µM, first compound 0.316 µM
[7] = second compound 0.1 µM, first compound 1 µM
[8] = second compound 0.1 µM, first compound 3.16 µM
[9] = second compound 0.1 µM, first compound 10 µM
[10] = second compound 0.316 µM, first compound 0.0316 µM
[11] = second compound 0.316 µM, first compound 0.1 µM
[12] = second compound 0.316 µM, first compound 0.316 µM
[13] = second compound 0.316 µM, first compound 1 µM
[14] = second compound 0.316 µM, first compound 3.16 µM
[15] = second compound 0.316 µM, first compound 10 µM
[16] = second compound 1 µM, first compound 0.0316 µM
[17] = second compound 1 µM, first compound 0.1 µM
[18] = second compound 1 µM, first compound 0.316 µM
[19] = second compound 1 µM, first compound 1 µM
[20] = second compound 1 µM, first compound 3.16 µM
[21] = second compound 1 µM, first compound 10 µM
[22] = curve of first compound, second compound 0.01 µM
[23] = curve of first compound, second compound 0.0316 µM
[24] = second compound 0.01 µM, first compound 0.0316 µM
[25] = second compound 0.01 µM, first compound 0.1 µM
[26] = second compound 0.01 µM, first compound 0.316 µM
[27] = second compound 0.01 µM, first compound 1 µM
[28] = second compound 0.0316 µM, first compound 0.0316 µM
[29] = second compound 0.0316 µM, first compound 0.1 µM
[30] = second compound 0.0316 µM, first compound 0.316 µM
[31] = second compound 0.0316 µM, first compound 1 µM
[32] = second compound 0.01 µM, first compound 0.00316 µM
[33] = second compound 0.01 µM, first compound 0.01 µM
[34] = second compound 0.0316 µM, first compound 0.00316 µM
[35] = second compound 0.0316 µM, first compound 0.01 µM
[36] = second compound 0.1 µM, first compound 0.00316 µM
[37] = second compound 0.1 µM, first compound 0.01 µM
[38] = second compound 0.316 µM, first compound 0.00316 µM
[39] = second compound 0.316 µM, first compound 0.01 µM
[40] = second compound 1 µM, first compound 0.00316 µM
[41] = second compound 1 µM, first compound 0.01 µM
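Further: spheroids exposed to compounds for seven days.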
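Wherever viability, T/C is given: 100% = DMSO vehicle control viability.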

CC(C)n1nc(-c2ccc3oc(N)nc3c2)c2c(N)ncnc21
viability, T/C (compound 0.000316 µM): 97% and 95% | viability, T/C (compound 0.001 µM): 90.5% and 88.2% | viability, T/C (compound 0.00316 µM): 82.9% and 83.9% | viability, T/C (compound 0.01 µM): 70% and 77.5% | viability, T/C (compound 0.0316 µM): 59.4% and 57.2% | viability, T/C (compound 0.1 µM): 39.2% and 46.5% | IC50 (curve of compound): 51.9 nM and 70.1 nM

Cn1ncnc1[C@H]1c2n[nH]c(=O)c3cc(F)cc(c23)N[C@@H]1c1ccc(F)cc1
viability, T/C (compound 0.000316 µM): 104% and 97.7% | viability, T/C (compound 0.001 µM): 91% | viability, T/C (compound 0.00316 µM): 92.1% and 91.5% | viability, T/C (compound 0.01 µM): 86.4% and 86.3% | viability, T/C (compound 0.0316 µM): 83% and 86.4% | viability, T/C (compound 0.1 µM): 89.5% and 79.1% | IC50 (curve of compound): > 100 nM

Cn1ncc(Cl)c1-c1cc(C(=O)NC(CN)Cc2cccc(F)c2)sc1Cl (centres undefined) + CC(C)NCC(C(=O)N1CCN(c2ncnc3c2C(C)CC3O)CC1)c1ccc(Cl)cc1
IC50 [1]: 3040 nM | IC50 [2]: 3800 nM | IC50 [3]: 3320 nM | IC50 (curve of first compound, second compound 3.16 µM): 3410 nM | IC50 (curve of first compound, second compound 10 µM): 686 nM | viability, T/C [4]: 89.4% | viability, T/C [5]: 83% | viability, T/C [6]: 75.9% | viability, T/C [7]: 61.4% | viability, T/C [8]: 57.4% | viability, T/C [9]: 0.26% | viability, T/C [10]: 80.7% | viability, T/C [11]: 67.3% | viability, T/C [12]: 74.2% | viability, T/C [13]: 64.8% | viability, T/C [14]: 61.5% | viability, T/C [15]: 0.25% | viability, T/C [16]: 71.7% | viability, T/C [17]: 73.1% | viability, T/C [18]: 75.7% | viability, T/C [19]: 55.7% | viability, T/C [20]: 56.8% | viability, T/C [21]: 0.23% | viability, T/C (second compound 3.16 µM, first compound 0.0316 µM): 60.5% | viability, T/C (second compound 3.16 µM, first compound 0.1 µM): 62% | viability, T/C (second compound 3.16 µM, first compound 0.316 µM): 55.9% | viability, T/C (second compound 3.16 µM, first compound 1 µM): 58% | viability, T/C (second compound 3.16 µM, first compound 3.16 µM): 53.6% | viability, T/C (second compound 3.16 µM, first compound 10 µM): 0.23% | viability, T/C (second compound 10 µM, first compound 0.0316 µM): 53.1% | viability, T/C (second compound 10 µM, first compound 0.1 µM): 45.6% | viability, T/C (second compound 10 µM, first compound 0.316 µM): 51.8% | viability, T/C (second compound 10 µM, first compound 1 µM): 50.8% | viability, T/C (second compound 10 µM, first compound 3.16 µM): 44.6% | viability, T/C (second compound 10 µM, first compound 10 µM): 0.3%

Cn1ncc(Cl)c1-c1cc(C(=O)NC(CN)Cc2cccc(F)c2)sc1Cl (centres undefined) + CCN1CCN(Cc2ccc(Nc3ncc(F)c(-c4cc(F)c5nc(C)n(C(C)C)c5c4)n3)nc2)CC1
IC50 [22]: 1500 nM | IC50 [23]: 1270 nM | IC50 [1]: 1200 nM | IC50 [2]: 1190 nM | IC50 [3]: 792 nM | viability, T/C [24]: 88.8% | viability, T/C [25]: 73.4% | viability, T/C [26]: 61.9% | viability, T/C [27]: 50.3% | viability, T/C (second compound 0.01 µM, first compound 3.16 µM): 50.6% | viability, T/C (second compound 0.01 µM, first compound 10 µM): 0.19% | viability, T/C [28]: 83.8% | viability, T/C [29]: 70.8% | viability, T/C [30]: 58.5% | viability, T/C [31]: 50.2% | viability, T/C (second compound 0.0316 µM, first compound 3.16 µM): 45.4% | viability, T/C (second compound 0.0316 µM, first compound 10 µM): 0.24% | viability, T/C [4]: 84.4% | viability, T/C [5]: 84.6% | viability, T/C [6]: 61.1% | viability, T/C [7]: 48.9% | viability, T/C [8]: 40.7% | viability, T/C [9]: 0.17% | viability, T/C [10]: 92.8% | viability, T/C [11]: 81.8% | viability, T/C [12]: 68% | viability, T/C [13]: 52.1% | viability, T/C [14]: 35.3% | viability, T/C [15]: 0.21% | viability, T/C [16]: 94.2% | viability, T/C [17]: 95.3% | viability, T/C [18]: 70.3% | viability, T/C [19]: 39.9% | viability, T/C [20]: 25.1% | viability, T/C [21]: 0.27%

COc1c(OCCCN2CCOCC2)ccc2c3n(c(=NC(=O)c4cnc(N)nc4)nc12)CCN3 + CCN1CCN(Cc2ccc(Nc3ncc(F)c(-c4cc(F)c5nc(C)n(C(C)C)c5c4)n3)nc2)CC1
IC50 [22]: 48.1 nM | IC50 [23]: 42.1 nM | IC50 [1]: 43.2 nM | IC50 [2]: 42.7 nM | IC50 [3]: 31.3 nM | viability, T/C [32]: 91.8% | viability, T/C [33]: 80.9% | viability, T/C [24]: 58.5% | viability, T/C [25]: 33.7% | viability, T/C [26]: 15.2% | viability, T/C [27]: 1.9% | viability, T/C [34]: 93.2% | viability, T/C [35]: 73.2% | viability, T/C [28]: 56.7% | viability, T/C [29]: 35.1% | viability, T/C [30]: 14.7% | viability, T/C [31]: 1.66% | viability, T/C [36]: 84.1% | viability, T/C [37]: 76.5% | viability, T/C [4]: 55.4% | viability, T/C [5]: 32.8% | viability, T/C [6]: 11.6% | viability, T/C [7]: 1.67% | viability, T/C [38]: 85.9% | viability, T/C [39]: 74.2% | viability, T/C [10]: 57.5% | viability, T/C [11]: 31.4% | viability, T/C [12]: 11.8% | viability, T/C [13]: 2.07% | viability, T/C [40]: 98.3% | viability, T/C [41]: 72% | viability, T/C [16]: 56.6% | viability, T/C [17]: 18.8% | viability, T/C [18]: 5.6% | viability, T/C [19]: 2.69%

CC(C)n1nc(-c2ccc3oc(N)nc3c2)c2c(N)ncnc21 + CCN1CCN(Cc2ccc(Nc3ncc(F)c(-c4cc(F)c5nc(C)n(C(C)C)c5c4)n3)nc2)CC1
IC50 [22]: 59.8 nM | IC50 [23]: 26.9 nM | IC50 [1]: 52.9 nM | IC50 [2]: > 100 nM | IC50 [3]: 69.4 nM | viability, T/C (second compound 0.01 µM, first compound 0.000316 µM): 102% | viability, T/C (second compound 0.01 µM, first compound 0.001 µM): 88% | viability, T/C [32]: 73.4% | viability, T/C [33]: 76.5% | viability, T/C [24]: 58.2% | viability, T/C [25]: 42.2% | viability, T/C (second compound 0.0316 µM, first compound 0.000316 µM): 88% | viability, T/C (second compound 0.0316 µM, first compound 0.001 µM): 74.5% | viability, T/C [34]: 90.8% | viability, T/C [35]: 71% | viability, T/C [28]: 47.5% | viability, T/C [29]: 38.7% | viability, T/C (second compound 0.1 µM, first compound 0.000316 µM): 93.6% | viability, T/C (second compound 0.1 µM, first compound 0.001 µM): 88.4% | viability, T/C [36]: 78.8% | viability, T/C [37]: 68.1% | viability, T/C [4]: 55.1% | viability, T/C [5]: 43.6% | viability, T/C (second compound 0.316 µM, first compound 0.000316 µM): 96.5% | viability, T/C (second compound 0.316 µM, first compound 0.001 µM): 96.6% | viability, T/C [38]: 80% | viability, T/C [39]: 56.5% | viability, T/C [10]: 53.2% | viability, T/C [11]: 50.2% | viability, T/C (second compound 1 µM, first compound 0.000316 µM): 88.8% | viability, T/C (second compound 1 µM, first compound 0.001 µM): 93.5% | viability, T/C [40]: 82.6% | viability, T/C [41]: 61.3% | viability, T/C [16]: 52.1% | viability, T/C [17]: 48.6%
